Structures are written as SMILES. Where two headings read alike, the source gives them in different places.

Series [1] relates to HEK293 cells. Put plainly: MTT assay, noncancerous HEK293. The class given is cell-based, human. The conditions noted are these: exposure 72 h, read-out: 50% inhibitory concentration (IC50) HEK293. The procedure:
(§1) The in vitro antiproliferative activity of novel organic compounds HL^1–HL^4 and corresponding copper(II) complexes 1–4 was tested in the breast cancer cell line MDA-MB-231, hepatocellular carcinoma cell line LM3, and human embryonic kidney cell line HEK293 and then compared to those of the previously reported paullones HL^5–HL^7 and copper(II) complexes 5–7,[39],[44] as well as latonduines HL^8–HL^11 and copper(II) complexes 8–11.[34] […] The in vitro anticancer activity was determined by the colorimetric MTT assay with an exposure time of 72 h.
(§2) Human breast adenocarcinoma MDA-MB-231 and human embryonic kidney HEK293 cells were obtained from ATCC. Hepatocellular carcinoma LM3 cells were a kind gift of Prof. Kan Man Hui (Duke-NUS Medical School). All cells were cultured in DMEM medium containing 10% FBS in tissue culture 75 cm^2 flasks (BDBiosciences, Singapore) at 37 °C in a humidified atmosphere of 95% air and 5% CO2. All stock solutions were prepared in DMSO. The amount of actual Cu concentration in stock solutions was verified by ICP-OES.
(§3) The cytotoxicity of the compounds was determined by the colorimetric MTT assay. The cells were harvested from culture flasks by trypsinization and seeded into CELLSTAR 96-well microculture plates at the seeding density of 6000 cells per well (6 × 10^4 cells/mL). […] Optical densities were measured at 570 nm using the BioTekH1 Synergy microplate reader. […]
In general terms: Tetrazolium dyes change colour on reduction, which living cells bring about.

The subject of series [2] is LM3 cells. Nature of the series: MTT antiproliferative assay, LM3. Particulars: exposure 72 h, read-out: 50% inhibitory concentration (IC50) LM3. The class given is cell-based. Here is the method:
as §1, §2, §3

The subject of series [3] is MDA-MB-231 cells. Put plainly: MTT antiproliferative assay, MDA-MB-231. The conditions noted are these: exposure 72 h, read-out: 50% inhibitory concentration (IC50) MDA-MB-231. The class given is cell-based, human. The procedure:
as §1, §2, §3

A short description of series [4]: Solution stability (UV-vis, ESI-MS, 1H NMR). The class given is physicochemical. Particulars: aqueous solution containing 1% DMSO, 72 h. Here is the method: First, UV–vis kinetic studies were performed with the ligands HL^2 and HL^4 (Figure S30) and the copper(II) complexes 1–4 in aqueous solutions containing 1% DMSO (Figures S31 and 32). Additionally, the stability of the copper(II) complex 4 was also measured in phosphate-buffered saline (PBS) (pH ∼ 7.4) containing 3% DMSO over 24 h. […] Additional peaks which could be assigned to the dissociated ligand or any its fragments due to a hypothetical ligand degradation have not been registered. In addition to UV–vis data, the stability and purity of complex 4 were tested by analytical HPLC-HR ESI MS using methanol or acetonitrile with 0.1% formic acid as the eluent over 10 min. A single peak at around 1 min corresponding to [Cu^II(L^4)]^+ (found m/z = 506.9939 (Figure S23), calcd m/z for C23H17BrCuN5 507.0063) was registered in agreement with other experiments. In addition, the stability of HL^4 in 1:1 DMSO-d6/D2O at 25 °C was monitored by ^1H NMR spectroscopy. […] In addition, solution stability of the lead complex 4 was studied in ethanol-cell culture medium (1:1 v/v) by monitoring the electronic absorption spectra in the visible region within a time period of 8 h (Figure S34, Supporting Information).

For series [5], the system named is MDA-MB-231 cells. Details: method as in PMID 34995063. Particulars: MTT assay, exposure 72 h; read-out: 50% inhibitory concentration (IC50) MDA-MB-231; cited from earlier work.
In series [6] the test system is HEK293 cells. Details: method as in doi:10.1021/acs.organomet.9b00229. Particulars: MTT assay, exposure 72 h; read-out: 50% inhibitory concentration (IC50) HEK293; cited from earlier work.
Series [7] concerns LM3 cells. More on the design: method as in PMID 34995063. Particulars: MTT assay, exposure 72 h; read-out: 50% inhibitory concentration (IC50) LM3; cited from earlier work.

For the compound `C(=N\N=C1/NCc2ccccc2-c2[nH]c3ccccc3c21)/c1ccccn1` [HL^1], the IC50 with HEK293 cells [1] amounted to 2000 ± 100 nM; with LM3 cells [2], 1400 ± 200 nM; with MDA-MB-231 cells [3], 1500 ± 100 nM. Moreover, in series [4], the “stability by UV–vis absorption spectra” value is given as “no changes in the UV–vis absorption spectra over 72 h”.
Take `N.N.[Cl][Pt][Cl]` [cisplatin]: the IC50 with MDA-MB-231 cells [5] is 21000 ± 5000 nM; in the series on HEK293 cells [6] it was 3400 ± 1100 nM; in the series with LM3 cells [7], 10000 ± 3000 nM.

Source of the values: PMC9490829, “Elucidation of Structure–Activity Relationships in Indolobenzazepine-Derived Ligands and Their Copper(II) Complexes: the Role of Key Structural Components and Insight into the Mechanism of Action” (Inorganic Chemistry, 2022).
